Data set [1] deals with BMDCs. The experiment in a line: Cell viability of BMDCs (CellTiter-Glo, cellular ATP). The format is cell-based, mouse. Conditions: for EC50: Mus musculus, BMDC, zymosan-stimulated BMDCs, read-out: Viability loss EC50. As to the method:
(§1) Bone marrow-derived DCs were differentiated from C57BL/6 bone marrow in the presence of GM-CSF-conditioned media. CD11c^+ CX3CR1^hi myeloid cells and CD11c^+ CX3CR1^− DCs were isolated from the small intestine lamina propria of Cx3cr1^eGFP/+ mice (12). Detection of cell-surface Thy1.1 expression on BMDCs from 10BiT reporter mice was conducted as described previously (24). Cell viability was estimated by change in total cellular ATP levels using CellTiterGlo assays (Promega). Preparation of recombinant SIK proteins and IC50 measurements were conducted as described previously (21). Total RNA was extracted using a NucleoSpin 96 RNA isolation kit (Macherey-Nagel) followed by cDNA synthesis and multiplex RT-PCR using a microfluidic dynamic array (Fluidigm). The concentrations of TNF-α, IL-6, IL-10, IL-12p40, IL-1β and RANTES in culture supernatants were detected using a FlexSet Cytometric bead array (BD Biosciences). Alternatively, IL-10 secretion was quantified using ELISA (BD Biosciences) or AlphaLISA (PerkinElmer) assays. NO production was estimated based on nitrate content in culture medium using the Greiss reagent.
(§2) BMDCs were seeded into black 384-well plates (Corning) at 20,000 cells/well in 40 μL complete DMEM using a Multidrop COMBI (Thermal Scientific) followed by incubation at 37° C. for 2 hr to allow for plate adherence. SIK inhibitors (100 nL/well) were pin-transferred from concentrated DMSO stocks using CyBi-Well Vario (CyBio) into duplicate plates. For each treatment plate, 32 out of 384 wells were pinned with DMSO as negative control and 32 out of 384 wells were pinned with PGE2 (5 μM final concentration). Two days after SIK inhibitor treatment, BMDCs were stimulated with zymosan (4 μg/mL final concentration) dispersed in culture medium (20 μL/well) using a Multidrop COMBI. After 18 hr, 5 μL of resulting supernatant was transferred from the culture plate to white 384-well AlphaLISA plates (Perkin Elmer) using a CyBi-Well Vario. IL-10 abundance in the supernatants was determined using an AlphaLISA assay (PerkinElmer) according to the manufacture's protocol and signal intensity measured using an EnVision multimode plate reader. SIK inhibitor activity was expressed as a % of the differences between the mean abundance of IL-10 in PGE2 versus DMSO wells on a per plate basis. Cell viability assays were conducted on the same tissue culture plates as the IL-10 assay. First media was removed and replaced by solution of 50% (vol/vol) CellTiter-Glo (Promega) in PBS. Luminescence was read using an Envision multimode plate reader, and signal intensity calculated relative to DMSO control wells on a per plate basis.
For orientation: Cellular ATP, detected with luciferase, serves as a proxy for viable cell number.

For the next data set, the target named is T1, SIK3 (Homo sapiens, UniProt Q9Y2K2).
T1 construct: made in house
T1 sequence (Q9Y2K2 whole entry): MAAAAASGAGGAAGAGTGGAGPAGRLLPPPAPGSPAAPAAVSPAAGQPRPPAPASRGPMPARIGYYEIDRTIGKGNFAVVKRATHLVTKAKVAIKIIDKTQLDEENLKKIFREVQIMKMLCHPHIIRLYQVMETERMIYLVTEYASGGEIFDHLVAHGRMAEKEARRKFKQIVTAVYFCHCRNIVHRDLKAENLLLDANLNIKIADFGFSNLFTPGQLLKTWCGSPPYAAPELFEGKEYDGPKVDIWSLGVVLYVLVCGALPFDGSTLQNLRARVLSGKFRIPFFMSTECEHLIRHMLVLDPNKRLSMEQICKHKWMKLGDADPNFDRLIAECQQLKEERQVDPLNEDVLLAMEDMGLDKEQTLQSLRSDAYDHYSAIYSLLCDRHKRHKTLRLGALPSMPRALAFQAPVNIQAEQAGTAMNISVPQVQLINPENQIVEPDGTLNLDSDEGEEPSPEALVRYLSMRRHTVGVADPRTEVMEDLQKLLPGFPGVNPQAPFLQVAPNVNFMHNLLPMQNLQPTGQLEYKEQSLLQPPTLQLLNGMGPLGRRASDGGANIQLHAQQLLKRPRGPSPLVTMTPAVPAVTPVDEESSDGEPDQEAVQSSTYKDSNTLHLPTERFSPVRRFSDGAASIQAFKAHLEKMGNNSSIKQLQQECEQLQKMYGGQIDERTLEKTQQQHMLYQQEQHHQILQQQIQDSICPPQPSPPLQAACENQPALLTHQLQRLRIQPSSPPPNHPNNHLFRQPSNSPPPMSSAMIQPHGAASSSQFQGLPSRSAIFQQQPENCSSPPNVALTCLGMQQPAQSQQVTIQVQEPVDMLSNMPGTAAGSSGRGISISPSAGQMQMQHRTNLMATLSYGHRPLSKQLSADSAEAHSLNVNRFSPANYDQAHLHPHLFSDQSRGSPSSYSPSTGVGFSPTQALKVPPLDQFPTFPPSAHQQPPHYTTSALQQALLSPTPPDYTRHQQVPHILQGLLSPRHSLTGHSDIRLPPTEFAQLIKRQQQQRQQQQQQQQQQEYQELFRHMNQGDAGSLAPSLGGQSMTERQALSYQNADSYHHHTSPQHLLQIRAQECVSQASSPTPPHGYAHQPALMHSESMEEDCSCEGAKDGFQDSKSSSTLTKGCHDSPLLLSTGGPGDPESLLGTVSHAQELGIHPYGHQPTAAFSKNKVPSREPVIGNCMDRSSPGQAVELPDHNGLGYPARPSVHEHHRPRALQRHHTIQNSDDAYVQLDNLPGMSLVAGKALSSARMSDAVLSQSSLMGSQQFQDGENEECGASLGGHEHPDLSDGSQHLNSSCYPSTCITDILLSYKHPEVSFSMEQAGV
The experiment in a line: Protein kinase assay ([γ-32P] ATP, phosphocellulose paper) against SIK3. The format is biochemical. The settings on record: read-out: Enzyme Inhibition IC50 SIK3. As to the method: as §1
(§3) In another set of experiments, the activities of the SIK inhibitors described herein against SIK were determined according to the methods reported in Hastie et al., Nature Protocols, 2006, 1, 968-971.
(§4) This buffer consisted of 50 mM Tris-HCl, pH 7.5, 0.1 mM EGTA, 1 mg ml^−1 bovine serum albumin and 0.1% (vol/vol) 2-mercaptoethanol.
(§5) An assay buffer of 500 mM Tris-HCl, pH 7.5, 1 mM EGTA, and 100 mM magnesium acetate was used for the protein kinase assay.
(§6) The specific activity of the [γ-^32P] ATP solution was 1×10^5 to 1×10^6 c.p.m. per nmol depending on what was needed to produce an optimal signal/noise ratio. Stocks of nonradioactive (“cold”) ATP were dissolved in 10 mM HEPES, and the pH of the resulting stock solutions was adjusted to 7.4. To measure the concentration of ATP, a sample of such a stock solution was diluted to 20 μM, and the absorbance of the diluted sample was measured at 259 nm. The absorbance of a 20-μM stock solution of ATP at 259 nm was about 0.31. The 1-mM solution of cold ATP was “spiked” with [γ-^32P] ATP to produce a radioactivity of 1×10^5 to 1×10^6 c.p.m. per nmol.
(§7) 1) The number of assay samples needed was determined based on, e.g., the following considerations: (i) each condition was assayed in duplicate; (ii) two controls containing peptide or protein substrate and ATP but no SIK were included to assess contamination by any free ATP not incorporated into substrate, alongside two controls lacking a peptide or protein substrate but containing ATP and SIK to correct for any incorporation of phosphate into the kinase itself (e.g., autophosphorylation); and (iii) a maximum of 40 samples were assayed manually at one time by a single person. Microcentrifuge tubes were label distinctly and were placed on ice.
(§8) 4) Dilute the SIK in enzyme dilution buffer and place on ice.
(§9) 5) Pipette 5 j±l of 10× concentrated assay buffer, 5 j±l peptide or protein substrate (the two “no-substrate” control tubes had 5 j±l water added instead of peptide or protein substrate), and 30 μl distilled water into each tube. Keep the tubes on ice.
(§10) 6) Add 5 μl diluted SIK to each tube, except for the two “no-enzyme” control tubes, which had 5 μl enzyme dilution buffer added, and still keeping the tubes on ice. In some cases, premixed “cocktails” of assay components were prepared containing peptide or protein substrate, assay buffer, and distilled water to limit the number of additions to each assay tube. Each of steps 7 to 14 was done behind a plexiglass shield.
(§11) 7) Insert each tube into the water bath at intervals of 15 s to allow the assay mixture to reach 30° C. Begin the SIK reactions by adding 5 μl of 1 mM [γ-^32P] ATP to each tube at intervals of 15 s. Close each tube, vortex for 1 s to mix the contents and immediately replace in a rack in the water bath. Incubate for 10 min at 30° C. […]

The next data set deals with T2, SIK1 (Homo sapiens, UniProt P57059).
T2 construct: made in house
T2 sequence (P57059 whole entry): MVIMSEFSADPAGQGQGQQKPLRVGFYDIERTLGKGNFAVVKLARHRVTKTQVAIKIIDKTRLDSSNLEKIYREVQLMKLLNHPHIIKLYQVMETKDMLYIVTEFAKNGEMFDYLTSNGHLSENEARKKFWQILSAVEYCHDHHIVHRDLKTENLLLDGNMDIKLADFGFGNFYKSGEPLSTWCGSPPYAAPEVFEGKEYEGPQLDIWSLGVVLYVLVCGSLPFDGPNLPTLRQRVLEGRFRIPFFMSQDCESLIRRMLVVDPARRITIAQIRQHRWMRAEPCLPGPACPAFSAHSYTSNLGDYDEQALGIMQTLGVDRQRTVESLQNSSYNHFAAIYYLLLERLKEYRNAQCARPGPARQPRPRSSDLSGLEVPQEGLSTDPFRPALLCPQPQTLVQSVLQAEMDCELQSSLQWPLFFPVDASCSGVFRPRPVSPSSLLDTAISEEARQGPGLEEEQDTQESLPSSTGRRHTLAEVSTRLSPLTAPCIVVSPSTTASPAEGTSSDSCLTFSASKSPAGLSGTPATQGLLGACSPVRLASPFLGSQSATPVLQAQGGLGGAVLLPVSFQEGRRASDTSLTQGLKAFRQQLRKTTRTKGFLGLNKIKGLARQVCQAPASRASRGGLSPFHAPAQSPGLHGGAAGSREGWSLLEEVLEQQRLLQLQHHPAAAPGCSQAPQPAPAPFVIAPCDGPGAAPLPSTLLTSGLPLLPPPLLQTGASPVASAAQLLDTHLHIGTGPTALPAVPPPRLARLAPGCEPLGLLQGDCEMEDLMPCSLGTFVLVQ
The experiment in a line: Protein kinase assay ([γ-32P] ATP, phosphocellulose paper) against SIK1. The format is biochemical. Conditions: 1 μM; DMSO set to 100%; read-out: Activity of protein kinase treated with 1 μM of I-1 (% control (DMSO)) SIK1. As to the method: as §1, with “Total RNA was extracted using a NucleoSpin 96 RNA isolation kit (Macherey-Nagel) followed by cDNA synthesis and multiplex RT-PCR using a microfluidic dynamic array (Fluidigm).” left out, “NO production was estimated based on nitrate content in culture medium using the Greiss reagent.” left out
In another set of experiments, the activities of the SIK inhibitors described herein against SIK were determined according to the methods reported in Hastie et al., Nature Protocols, 2006, 1, 968-971. […]
The specific activity of the [γ-^32P] […] To measure the concentration of ATP, a sample of such a stock solution was diluted to 20 μM, and the absorbance of the diluted sample was measured at 259 nm. The absorbance of a 20-μM stock solution of ATP at 259 nm was about 0.31. […] ATP to produce a radioactivity of 1×10^5 to 1×10^6 c.p.m. per nmol. […]

Another data set concerns the target T3, SIK2 (Homo sapiens, UniProt Q9H0K1).
T3 construct: made in house
The experiment in a line: Protein kinase assay ([γ-32P] ATP, phosphocellulose paper) against SIK2. It counts as biochemical. The settings on record: for IC50: read-out: Enzyme Inhibition IC50 SIK2. The method, then: as §1, §3, §4, §5, §6, §7, §8, §9, §10, §11

In data set [2] the test system is IL-10 production by zymosan-stimulated BMDCs. The experiment in a line: IL-10 up-regulation in zymosan-stimulated BMDCs (AlphaLISA/ELISA). It counts as cell-based, mouse. The settings on record: for EC50: Mus musculus, BMDC, read-out: IL-10 induction EC50; for effect on IL-10 production by BMDCs (in words): kinase inhibitor screen / PGE2 control. The method, then:
as §1
(§12) C57BL/6 mice were euthanized and bone marrow harvested from femurs and tibias as described previously (Graham D B, et al. (2007) An ITAM-signaling pathway controls cross-presentation of particulate but not soluble antigens in dendritic cells. The Journal of experimental medicine 204(12):2889-2897). BMDCs were differentiated DMEM supplemented with 2 mM GlutaMAX, 10% (vol/vol) FBS, penicillin, streptomycin and 2% mouse GM-CSF conditioned media derived from TOPO cells. Cultures were differentiated for 7 days and routinely analyzed for >90% CD11c (APC anti-CD11c clone HL3; BD Biosciences) positivity by flow cytometry before use in experiments. Lentiviral transduction of bone marrow cultures was conducted by addition of 293T culture supernatants containing lentiviral particles encoding the CREB dependent luciferase reporter construct or CRTC3 targeting or control shRNAs one day post-isolation. Stable integration of lentiviral shRNA constructs was selected by addition of puromycin (3 μg/mL) on day 4 post-transduction. After 2 days, stably transduced BMDCs were released from selection and used in subsequent assays. Unless otherwise indicated, cells were treated for 2 days with PGE2 (5 μM) or HG-9-91-01 (0.5 μM) or an equivalent concentration of DMSO (≤0.5%) and then stimulated for 18 hr with LPS (100 ng/mL), R848 (10 μg/mL) or zymosan (4 μg/mL).
as §2, with “Luminescence was read using an Envision multimode plate reader, and signal intensity calculated relative to DMSO control wells on a per plate basis.” left out

In data set [3] the test system is BMDCs. The experiment in a line: Multiplex qPCR of transcripts in stimulated BMDCs. The format is cell-based, mouse. Conditions: 2 days pre-treatment, 4 hr LPS, R848 or zymosan. As to the method: as §1
as §12, with “Unless otherwise indicated, cells were treated for 2 days with PGE2 (5 μM) or HG-9-91-01 (0.5 μM) or an equivalent concentration of DMSO (≤0.5%) and then stimulated for 18 hr with LPS (100 ng/mL), R848 (10 μg/mL) or zymosan (4 μg/mL).” left out
Total RNA was extracted using a NucleoSpin 96 RNA isolation kit (Macherey-Nagel). […] Relative gene expression was calculated from Ct values and normalized against ACTB mRNA levels as described previously (Pfaffl MW (2001) A new mathematical model for relative quantification in real-time RT-PCR. Nucleic acids research 29(9):e45). […]
Background: Quantitative PCR measures a nucleic acid by following its amplification.

Data set [4] relates to BMDCs. The experiment in a line: Cytokine (cytometric bead array) and NO (Greiss) production by stimulated BMDCs. It counts as cell-based, mouse. As to the method:
as §1, §12
After stimulation of cells with microbial ligands, the culture medium was removed, clarified by centrifugation for 10 min at 14,000×g, and the concentration of TNF-α, IL-6, IL-10, IL-12p40, IL-1β and RANTES were measured using FlexSet Cytokine Bead Array (BD Biosciences) according to the manufacturer's instructions. Where indicated, ELISAs were used to detect IL-10 and IL-12p70 (BD Biosciences) according to the manufacturer's instructions. NO production was estimated based on nitrate content in culture medium using the Greiss reagent as described previously (Miletic A V, et al. (2007) Vav proteins control MyD88-dependent oxidative burst. Blood 109(8):3360-3368).

T3 sequence (Q9H0K1 whole entry): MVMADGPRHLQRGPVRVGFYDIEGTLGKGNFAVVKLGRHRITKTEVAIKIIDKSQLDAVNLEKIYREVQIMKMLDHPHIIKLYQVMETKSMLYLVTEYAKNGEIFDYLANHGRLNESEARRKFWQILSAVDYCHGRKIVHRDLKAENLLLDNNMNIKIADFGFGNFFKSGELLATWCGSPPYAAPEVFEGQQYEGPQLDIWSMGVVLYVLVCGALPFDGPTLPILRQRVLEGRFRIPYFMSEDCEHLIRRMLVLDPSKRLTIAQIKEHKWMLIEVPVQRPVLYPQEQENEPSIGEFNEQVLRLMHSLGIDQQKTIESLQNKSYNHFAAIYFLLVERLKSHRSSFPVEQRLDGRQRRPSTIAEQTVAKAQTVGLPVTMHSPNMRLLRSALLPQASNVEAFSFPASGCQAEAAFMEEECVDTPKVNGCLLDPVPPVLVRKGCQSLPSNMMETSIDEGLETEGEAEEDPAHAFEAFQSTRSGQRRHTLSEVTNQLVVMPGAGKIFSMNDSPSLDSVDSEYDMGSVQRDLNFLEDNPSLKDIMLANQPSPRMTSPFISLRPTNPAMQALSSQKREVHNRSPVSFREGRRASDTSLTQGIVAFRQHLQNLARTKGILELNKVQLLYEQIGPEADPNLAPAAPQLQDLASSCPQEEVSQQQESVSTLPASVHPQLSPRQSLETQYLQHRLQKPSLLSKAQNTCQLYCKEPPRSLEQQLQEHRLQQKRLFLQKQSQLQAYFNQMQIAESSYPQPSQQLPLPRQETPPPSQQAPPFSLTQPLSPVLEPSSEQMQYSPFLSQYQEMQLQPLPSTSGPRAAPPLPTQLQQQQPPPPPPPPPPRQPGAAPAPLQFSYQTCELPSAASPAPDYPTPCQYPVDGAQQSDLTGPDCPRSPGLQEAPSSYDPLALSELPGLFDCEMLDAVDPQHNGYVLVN

As usually defined, the EC50 is the midpoint of the concentration-response curve. One may read the IC50 as the concentration needed to halve the response being measured. Regarding `CCN1CCN(CCOc2ccc3cc2COC/C=C/CN(C(=O)Oc2c(C)cccc2C)c2ccnc(n2)N3)CC1` [I-2], in the data set with BMDCs [1], the EC50 came out at 6580 nM. Also, the IC50 at SIK3 worked out at 445 nM; at SIK2 it was 87.8 nM. For the same compound, the remaining activity at 1 µM on SIK1 came to 15.9%; on SIK2 (1 μM, DMSO set to 100%, read-out: Activity of protein kinase treated with 1 μM of I-1 (% control (DMSO)) SIK2), 15%.
With `Cc1cccc(C)c1OC(=O)N1C/C=C\COCc2cc(ccc2OCCN2CCC(O)CC2)Nc2nccc1n2` [I-5], the figures for the EC50 (in the data set with BMDCs [1]; in data set [2] (zymosan-stimulated BMDCs)) were 6120 nM and 23800 nM, respectively. Also, the figures for the IC50 on SIK3 and on SIK2 were 73.7 nM and 12 nM, respectively.
With `COc1cc(N2CCC(N3CCN(C)CC3)CC2)ccc1Nc1ncc(Cl)c(Nc2ccccc2S(=O)(=O)C(C)C)n1` [TAE-684, reference compound], the “viability of BMDCs (in words)” value in the data set with BMDCs [1] was “reduced viability”.
In the case of `Cc1c[nH]c(-c2cnc(NCCNc3ccc(C#N)cn3)nc2-c2ccc(Cl)cc2Cl)n1` [CHIR-99021, reference compound], the “viability of BMDCs (in words)” value with BMDCs [1] is “reduced viability”. In data set [2] (zymosan-stimulated BMDCs, hit criterion), the “maximum effect on IL-10 production” value is > 30 % of the PGE2 response.
`CCCCC[C@H](O)/C=C/[C@H]1[C@H](O)CC(=O)[C@@H]1C/C=C\CCCC(=O)O` [PGE2, prostaglandin E2, reference compound]: in the data set with BMDCs [3], the “IL-10 mRNA levels” value is “robustly enhanced”; the “abundance of Arg1 and Nos2 transcripts” value is reported as “highly induced”. For the same compound, in the data set on BMDCs [4] (BMDCs pre-treated, LPS, R848 or zymosan 18 hr), the IL-10 secretion result was “similarly induced”. Moreover, in the data set on BMDCs [4] (BMDCs, stimulation with R848 or zymosan), the IL-1β production entry was “enhanced”. The NO production result in the data set on BMDCs [4] (BMDCs, zymosan stimulation, relative to HG-9-91-01-treated) is “increased NO production”. In addition, the “effect on IL-10 production by BMDCs (in words)” value in data set [2] is given as “increased levels of IL-10”.
Turning to `CN1CCN(CCOc2cc(OC3CCOCC3)c3c(Nc4c(Cl)ccc5c4OCO5)ncnc3c2)CC1` [saracatinib, reference compound], the “viability of BMDCs (in words)” value with BMDCs [1] is listed as “reduced viability”.
The same measure, in the same setting: the result for `COc1cc(Nc2c(C#N)cnc3cc(OCCCN4CCN(C)CC4)c(OC)cc23)c(Cl)cc1Cl` [bosutinib, reference compound] reads “reduced viability”.
Turning to `Cc1cccc(C)c1OC(=O)N1C/C=C/COCc2cc(ccc2OCCN2CCC(O)CC2)Nc2nccc1n2` [I-4], the EC50 came to 5000 nM with BMDCs [1] and 10500 nM in data set [2] (zymosan-stimulated BMDCs). Moreover, the IC50 at SIK3 came out at 409 nM; at SIK2 it was 93.8 nM.
Consider `Cc1ccc(NC(=O)c2ccc(CN3CCN(C)CC3)cc2)cc1Nc1nccc(-c2cccnc2)n1` [imatinib, reference compound], for which, in the data set with BMDCs [1], the “viability of BMDCs (in words)” value is on record as “non-toxic”. Further, the “effect on IL-10 production by BMDCs (in words)” value in data set [2] is “did not up-regulate IL-10 production”.
